A short description of this data set: Stability of the compounds and of the liposomes (statement in words). It counts as physicochemical. The note with it: compound itself.

As for `CCCCCCCCCCCCCCCCN(CCCCCCCCCCCCCCCC)CCOCCOC(=O)C(N)Cc1cnc[nH]1` (centres unmarked) [Example 1], the “stability of the compound” value is reported as “very stable”. Under `CCCCCCCCCCCCCCCCN(CCCCCCCCCCCCCCCC)C(=O)COCCOCCOCCNC(=O)C(N)Cc1cnc[nH]1` (centres unmarked) [Example 3] stands “very stable”.
